Experimental data taken from the NIST ThermoML archive (doi:10.1021/je030226s).

Columns and labels:
[1] = 101.32 kPa, Liquid
[2] = refractive index (Na D-line) (dimensionless); details: 101.33 kPa, Liquid
[3] = xn = mol fraction of the nth substance listed; details: 101.32 kPa, Liquid
[4] = refractive index (Na D-line) (dimensionless); xn = mol fraction of the nth substance listed; details: 101.32 kPa, Liquid

CCCCCl [1-chlorobutane]
Details	mass density, 288.15 K [kg/m3]	mass density, 298.15 K [kg/m3]	mass density, 308.15 K [kg/m3]	refractive index, 288.15 K	refractive index, 298.15 K	refractive index, 308.15 K	viscosity, 288.15 K [mPa·s]	viscosity, 298.15 K [mPa·s]	viscosity, 308.15 K [mPa·s]
[1]	892.2	881	869.7	–	–	–	0.472	0.423	0.382
[2]	–	–	–	1.4045	1.3993	1.3941	–	–	–

CCCCCl [1-chlorobutane] + CO
Details	mass density, 288.15 K [kg/m3]	mass density, 298.15 K [kg/m3]	mass density, 308.15 K [kg/m3]	refractive index, 288.15 K	refractive index, 298.15 K	refractive index, 308.15 K	viscosity, 288.15 K [mPa·s]	viscosity, 298.15 K [mPa·s]	viscosity, 308.15 K [mPa·s]
[3], x2 = 0	892.2	881	869.7	–	–	–	0.472	0.423	0.382
[3], x2 = 0.05	889.6	878.4	867.1	–	–	–	0.463	0.416	0.375
[3], x2 = 0.1	887.2	876.1	864.7	–	–	–	0.462	0.413	0.374
[3], x2 = 0.2	882.4	871.2	859.9	–	–	–	0.465	0.412	0.376
[3], x2 = 0.3	876.9	865.6	854.5	–	–	–	0.478	0.421	0.382
[3], x2 = 0.4	870.6	859.6	848.4	–	–	–	0.496	0.435	0.393
[3], x2 = 0.5	863.3	852.4	841.3	–	–	–	0.516	0.45	0.407
[3], x2 = 0.6	854.6	843.9	833	–	–	–	0.536	0.469	0.416
[3], x2 = 0.7	844.2	833.7	823.1	–	–	–	0.559	0.489	0.431
[3], x2 = 0.8	831.7	821.4	811	–	–	–	0.581	0.506	0.445
[3], x2 = 0.9	815.9	806	796	–	–	–	0.601	0.521	0.457
[3], x2 = 0.95	806.6	796.9	787.2	–	–	–	0.613	0.532	0.467
[4], x2 = 0	–	–	–	1.4045	1.3993	1.3941	–	–	–
[4], x2 = 0.05	–	–	–	1.4032	1.398	1.3928	–	–	–
[4], x2 = 0.1	–	–	–	1.4015	1.3964	1.3912	–	–	–
[4], x2 = 0.2	–	–	–	1.3978	1.3927	1.3877	–	–	–
[4], x2 = 0.3	–	–	–	1.3936	1.3885	1.3834	–	–	–
[4], x2 = 0.4	–	–	–	1.3885	1.3835	1.3785	–	–	–
[4], x2 = 0.5	–	–	–	1.3827	1.3778	1.3728	–	–	–
[4], x2 = 0.6	–	–	–	1.3759	1.371	1.366	–	–	–
[4], x2 = 0.7	–	–	–	1.3679	1.3628	1.3579	–	–	–
[4], x2 = 0.8	–	–	–	1.3579	1.3529	1.3478	–	–	–
[4], x2 = 0.9	–	–	–	1.3457	1.3413	1.3365	–	–	–
[4], x2 = 0.95	–	–	–	1.3384	1.3342	1.3298	–	–	–

CCCCO [butan-1-ol]
Details	mass density, 288.15 K [kg/m3]	mass density, 298.15 K [kg/m3]	mass density, 308.15 K [kg/m3]	refractive index, 288.15 K	refractive index, 298.15 K	refractive index, 308.15 K	viscosity, 288.15 K [mPa·s]	viscosity, 298.15 K [mPa·s]	viscosity, 308.15 K [mPa·s]
[1]	813.5	805.9	798.2	–	–	–	3.394	2.598	2.019
[2]	–	–	–	1.401	1.3972	1.3932	–	–	–

CCCCO [butan-1-ol] + CCCCCl
x1 = 1
Details	mass density, 288.15 K [kg/m3]	mass density, 298.15 K [kg/m3]	mass density, 308.15 K [kg/m3]	refractive index, 288.15 K	refractive index, 298.15 K	refractive index, 308.15 K	viscosity, 288.15 K [mPa·s]	viscosity, 298.15 K [mPa·s]	viscosity, 308.15 K [mPa·s]
[3]	813.5	805.9	798.2	–	–	–	3.394	2.598	2.019
[4]	–	–	–	1.401	1.3972	1.3932	–	–	–

CCO [ethanol]
Details	mass density, 288.15 K [kg/m3]	mass density, 298.15 K [kg/m3]	mass density, 308.15 K [kg/m3]	refractive index, 288.15 K	refractive index, 298.15 K	refractive index, 308.15 K	viscosity, 288.15 K [mPa·s]	viscosity, 298.15 K [mPa·s]	viscosity, 308.15 K [mPa·s]
[1]	793.8	785.2	776.6	–	–	–	1.317	1.085	0.902
[2]	–	–	–	1.363	1.3591	1.355	–	–	–

CCO [ethanol] + CCCCCl
x1 = 1
Details	mass density, 288.15 K [kg/m3]	mass density, 298.15 K [kg/m3]	mass density, 308.15 K [kg/m3]	refractive index, 288.15 K	refractive index, 298.15 K	refractive index, 308.15 K	viscosity, 288.15 K [mPa·s]	viscosity, 298.15 K [mPa·s]	viscosity, 308.15 K [mPa·s]
[3]	793.8	785.2	776.6	–	–	–	1.317	1.085	0.902
[4]	–	–	–	1.363	1.3591	1.355	–	–	–

CO [methanol]
Details	mass density, 288.15 K [kg/m3]	mass density, 298.15 K [kg/m3]	mass density, 308.15 K [kg/m3]	refractive index, 288.15 K	refractive index, 298.15 K	refractive index, 308.15 K	viscosity, 288.15 K [mPa·s]	viscosity, 298.15 K [mPa·s]	viscosity, 308.15 K [mPa·s]
[1]	796.1	786.6	777.2	–	–	–	0.627	0.543	0.473
[2]	–	–	–	1.3303	1.3275	1.3254	–	–	–

CO [methanol] + CCCCCl
x1 = 1
Details	mass density, 288.15 K [kg/m3]	mass density, 298.15 K [kg/m3]	mass density, 308.15 K [kg/m3]	refractive index, 288.15 K	refractive index, 298.15 K	refractive index, 308.15 K	viscosity, 288.15 K [mPa·s]	viscosity, 298.15 K [mPa·s]	viscosity, 308.15 K [mPa·s]
[3]	796.1	786.6	777.2	–	–	–	0.627	0.543	0.473
[4]	–	–	–	1.3303	1.3275	1.3254	–	–	–

CCCO [propan-1-ol]
Details	mass density, 288.15 K [kg/m3]	mass density, 298.15 K [kg/m3]	mass density, 308.15 K [kg/m3]	refractive index, 288.15 K	refractive index, 298.15 K	refractive index, 308.15 K	viscosity, 288.15 K [mPa·s]	viscosity, 298.15 K [mPa·s]	viscosity, 308.15 K [mPa·s]
[1]	807.6	799.6	791.5	–	–	–	2.504	1.958	1.548
[2]	–	–	–	1.3869	1.3829	1.3789	–	–	–

CCCO [propan-1-ol] + CCCCCl
x1 = 1
Details	mass density, 288.15 K [kg/m3]	mass density, 298.15 K [kg/m3]	mass density, 308.15 K [kg/m3]	refractive index, 288.15 K	refractive index, 298.15 K	refractive index, 308.15 K	viscosity, 288.15 K [mPa·s]	viscosity, 298.15 K [mPa·s]	viscosity, 308.15 K [mPa·s]
[3]	807.6	799.6	791.5	–	–	–	2.504	1.958	1.548
[4]	–	–	–	1.3869	1.3829	1.3789	–	–	–
